Experimental data published in ChEMBL document CHEMBL4152373 (Bioorg Med Chem, 2018).

Tests used:
[1] = Octanol-PBS buffer partition coefficient, log D of the compound at pH 7.4 by HPLC method
[2] = Fraction unbound in rat plasma at 5 uM after 4 hrs by equilibrium dialysis method
[3] = Fraction unbound in mouse plasma at 5 uM after 4 hrs by equilibrium dialysis method
Rattus norvegicus [4] = assay: Unbound clearance in Sprague-Dawley rat at 1 mg/kg, iv administered as single dose by LC-MS/MS analysis; format: ADME, organism-based; conditions: in vivo
[5] = Half life in Sprague-Dawley rat at 1 mg/kg, iv administered as single dose by LC-MS/MS analysis; format: ADME, organism-based; conditions: in vivo
[6] = Oral bioavailability in Sprague-Dawley rat at 3 mg/kg administered via gavage as single dose by LC-MS/MS analysis; format: ADME, organism-based; conditions: in vivo
Rattus norvegicus [7] = assay: Dose normalized unbound AUC in Sprague-Dawley rat at 3 mg/kg, po administered via gavage as single dose by LC-MS/MS analysis; format: ADME, organism-based; conditions: in vivo
Mus musculus [8] = assay: Dose normalized unbound AUC in C57Bl/6J mouse at 50 mg/kg, po administered via gavage as single dose by LC-MS/MS analysis; format: ADME, organism-based; conditions: in vivo
Mus musculus [9] = assay: Antidiabetic activity in C57Bl/6J mouse assessed as inhibition of blood glucose AUC (0 to 120 mins) at 50 mg/kg, po treated prior to glucose challenge by OGTT relative to control; format: functional
[10] = Octanol-PBS buffer partition coefficient, log D of the compound at pH 7.4 by shake flask method
Mus musculus [11] = assay: Dose normalized unbound AUC in C57Bl/6J mouse at 3 mg/kg, po administered via gavage as single dose by LC-MS/MS analysis; format: ADME, organism-based; conditions: in vivo
Mus musculus [12] = assay: Antidiabetic activity in C57Bl/6J mouse assessed as inhibition of blood glucose AUC (0 to 120 mins) at […], po treated prior to glucose challenge by OGTT relative to control; format: functional; conditions: AT84, po

Row | SMILES | logD [1] | fraction unbound at 4 h, 5 µM [2] | fraction unbound at 4 h, 5 µM [3] | CL free (Rattus norvegicus [4]) [mL/min/kg] | half-life [5] [h] | bioavailability [6] [%] | fAUC/dose (Rattus norvegicus [7]) [µM·min] | fAUC/dose (Mus musculus [8]) [µM·min] | inhibition in vivo at 50 mg/kg (Mus musculus [9]) [%] | logD [10] | fAUC/dose (Mus musculus [11]) [µM·min] | inhibition in vivo at […] (Mus musculus [12]) [%]
1 | O=C(O)C[C@@H](CC1CCCC1)C(=O)N(c1nc(-c2ccccc2-c2ccc(-n3cccn3)nc2)cs1)C1CC1 | 3.1 | 0.0013 | 0.0014 | 6692 | 2.58 | 25 | 0.07 | 0.53 | 40 | – | – | –
2 | CC(C)[C@H](C(=O)Nc1nccs1)c1ccc(Cl)cc1 | 3.9 to 4.08 | 0.0062 | 0.0052 | 6666 | 3.67 | 15 | 0.08 | – | – | 3.94 | 0.045 | 7
3 | CC(C)C[C@H](CC(=O)O)C(=O)N(c1nc(-c2ccccc2-c2ccc(-n3cccn3)nc2)cs1)C1CC1 | 2.4 | 0.0057 | 0.0075 | 1091 | 4.67 | 29 | 0.55 | 3.3 | 26 | – | – | –
4 | CN(C(=O)[C@@H](CC(=O)O)CC1CCCC1)c1nc(-c2ccccc2Cl)cs1 | 2.74 to 2.9 | – | – | – | – | – | – | – | – | 2.87 | – | –
5 | CN(C(=O)[C@@H](CC(=O)O)Cc1ccccc1)c1nc(-c2ccccc2Cl)cs1 | 2.13 to 2.3 | 0.0008 | 0.0015 | 738 | 8.03 | 77 | 2.4 | 2 | -8 | 2.31 | – | –
6 | O=C(O)C[C@@H](Cc1ccccc1)C(=O)N(c1nc(-c2cc(Cl)ccc2Cl)cs1)C1CC1 | 3 | 0.0001 | 0.0001 | 2800 | 9.83 | 47 | 0.26 | 0.32 | 5 | – | – | –
7 | COc1ccc(-c2ccc(Cl)cc2-c2csc(N(C(=O)[C@@H](CC(=O)O)Cc3ccco3)C3CC3)n2)cn1 | 2.5 | 0.0026 | 0.0041 | 2738 | 9.65 | 38 | 0.26 | 1.2 | 32 | – | – | –
8 | CN(C(=O)[C@@H](CC(=O)O)CC1CCOCC1)c1nc(-c2ccccc2Cl)cs1 | 1.27 to 1.3 | – | – | – | – | – | – | – | – | 1.27 | – | –
9 | CN(C(=O)[C@H](CC(=O)O)Cc1ccccc1)c1nc(-c2ccccc2Cl)cs1 | 2.3 | – | – | – | – | – | – | – | – | – | – | –
10 | O=C(O)C[C@@H](Cc1ccccc1)C(=O)N(c1nc(-c2ccccc2Cl)cs1)C1CC1 | 2.3 | 0.0016 | 0.0025 | 1044 | 5.32 | 52 | 0.7 | 4.7 | 1 | – | – | –
11 | COc1ccc(-c2ccccc2-c2csc(N(C(=O)[C@@H](CC(=O)O)CC(C)C)C3CC3)n2)cn1 | 2.2 | 0.0066 | 0.0107 | 342 | 7.18 | 35 | 2.1 | 4.7 | 19 | – | – | –
